Test results: US12319679B2, “Morpholinyl, piperazinyl, oxazepanyl and diazepanyl O-glycoprotein-2-acetamido-2-deoxy-3-d-glucopyranosidase inhibitors” (BIOGEN MA INC., priority 2018, dated 2025)
Where a name gives a salt, the structure may show the parent alone.

Biological target: T1, Recombinant full length human OGA enzyme (Homo sapiens, UniProt O60502)
T1 construct: Recombinant full length human OGA enzyme was purchased from Origene; purchased Origene
T1 sequence (O60502 1-916): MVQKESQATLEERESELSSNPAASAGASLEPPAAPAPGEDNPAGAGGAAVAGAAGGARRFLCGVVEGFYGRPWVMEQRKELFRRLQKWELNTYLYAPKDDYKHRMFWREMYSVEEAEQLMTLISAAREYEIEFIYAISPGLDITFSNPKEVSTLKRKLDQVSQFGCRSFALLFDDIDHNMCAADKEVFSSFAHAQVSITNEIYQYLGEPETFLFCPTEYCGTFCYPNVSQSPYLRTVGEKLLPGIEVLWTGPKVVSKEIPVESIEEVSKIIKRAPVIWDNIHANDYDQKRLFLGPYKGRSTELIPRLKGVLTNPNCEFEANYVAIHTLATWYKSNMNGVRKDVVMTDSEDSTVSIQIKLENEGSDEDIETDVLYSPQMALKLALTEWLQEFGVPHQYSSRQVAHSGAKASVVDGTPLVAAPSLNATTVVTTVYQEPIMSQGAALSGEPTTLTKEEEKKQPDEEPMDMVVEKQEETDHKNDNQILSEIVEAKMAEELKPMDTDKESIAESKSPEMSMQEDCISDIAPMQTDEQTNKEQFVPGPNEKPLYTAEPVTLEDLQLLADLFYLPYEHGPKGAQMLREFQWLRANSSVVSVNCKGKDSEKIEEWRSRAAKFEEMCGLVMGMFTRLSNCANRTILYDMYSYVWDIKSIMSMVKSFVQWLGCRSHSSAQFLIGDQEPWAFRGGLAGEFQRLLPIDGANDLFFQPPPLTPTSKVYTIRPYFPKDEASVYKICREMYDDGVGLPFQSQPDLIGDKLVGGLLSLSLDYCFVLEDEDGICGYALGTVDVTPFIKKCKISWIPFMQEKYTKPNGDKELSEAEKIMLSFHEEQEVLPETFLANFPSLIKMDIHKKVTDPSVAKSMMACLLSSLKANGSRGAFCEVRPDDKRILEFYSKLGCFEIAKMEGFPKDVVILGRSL
Assay: OGA Enzyme Inhibition Biochemical Assay
Conditions: 1 nM OGA, 100 μM 4-MUGlcNAc (Km), pH 6.4, 90 minutes at room temperature; 10-point dose-response starting from 20 μM
Procedure: OGA Enzyme Inhibition Biochemical Assay
Recombinant full length human OGA enzyme was purchased from Origene. 4-MUGlCNAc substrate was purchased from Sigma. All other reagents were purchased from Sigma or Fisher. Assay buffer consists of the McIlvaine buffer system, pH 6.4 (0.2M Na2HPO4 mixed with 0.1M citric acid) and 0.01% BSA. Reactions consist of 1 nM OGA, 100 μM 4-MUGlcNAc (Km), and compound in a final volume of 10 μl. Reactions were incubated for 90 minutes at room temperature and quenched with 40 μl of 3M glycine, pH 10 and read on a Perkin Elmer Envision plate reader (Ex: 355 nm/Em: 460 nm). Compounds were tested with a 10-point dose-response starting from 20 μM with a 4-fold dilution. Data was fit using GraphPad Prism using a 4-paramter fit with variable slope.

| Structure (SMILES) | IC50 [nM] |
| --- | --- |
| CC(=O)Nc1ncc(CN2CCO[C@H](Cc3ccc(C)cn3)C2)s1 [Example 1-16, (R)—N-(5-((2-((5-methylpyridin-2-yl)methyl)morpholino)methyl)thiazol-2-yl)acetamide] | 160 |
| COc1nccc(C[C@@H]2CN(Cc3cnc(NC(C)=O)s3)CCO2)n1 [Example 1-7, (R)—N-(5-((2-((2-methoxypyrimidin-4-yl)methyl)morpholino)methyl)thiazol-2-yl)acetamide] | 110 |
| CC(=O)Nc1ncc(CN2CCNC(Cc3ccc(C)nc3)C2)s1 (single isomer, unassigned) [Example 4-14 Peak 1] | > 20000 |
| COc1cc(CC2CN(Cc3cnc(NC(C)=O)s3)CCCN2C(C)=O)ccn1 (stereo not shown) [Example 2-26, N-(5-((4-acetyl-3-((2-methoxypyridin-4-yl)methyl)-1,4-diazepan-1-yl)methyl)thiazol-2-yl)acetamide] | > 20000 |
| CC(=O)Nc1ncc(CN2CCOCC(Cc3ncc(F)cn3)C2)s1 (single isomer, unassigned) [Example 1-45 Peak 2] | 14 |
| CC(=O)Nc1ncc(CN2C[C@@H](Cc3cc(C)nc(C)c3)OC[C@@H]2C)s1 [Example 1-31] | 9 |
| CC(=O)Nc1ncc(CN2CCO[C@H](Cc3ccnc(OC(C)C)c3)C2)s1 [Example 1-12, (R)—N-(5-((2-((2-isopropoxypyridin-4-yl)methyl)morpholino)methyl)thiazol-2-yl)acetamide] | 270 |
| COc1cc(CC2CN(Cc3cnc(NC(C)=O)s3)CCN2)ccc1F (single isomer, unassigned) [Example 4-6 Peak 2] | 4100 |
| COc1cc(CC2CN(Cc3cnc(NC(C)=O)s3)CCCN2)ccn1 (stereo not shown) [Example 2-25, N-(5-((3-((2-methoxypyridin-4-yl)methyl)-1,4-diazepan-1-yl)methyl)thiazol-2-yl)acetamide] | > 20000 |
| CC(=O)Nc1ncc(CN2C[C@@H](Cc3cc(C)nc(C)c3)N(C)C[C@@H]2C)s1 [Example 2-10] | 34 |
| CC(=O)Nc1ncc(CN2CCNC(Cc3ccnc(C)c3)C2)s1 (single isomer, unassigned) [Example 4-8 Peak 2] | 490 |
| CC(=O)Nc1ncc(CN2CCN[C@@H](Cc3cc(C)nc(C)c3)C2)s1 [Example 4-2, (S)—N-(5-((3-((2,6-dimethylpyridin-4-yl)methyl)piperazin-1-yl)methyl)thiazol-2-yl)acetamide hydrochloride] | 350 |
| CC(=O)Nc1ncc(CN2C[C@@H](Cc3cc(C)nc(C)n3)NC[C@@H]2C)s1 [Example 2-13] | 22 |
| COc1cc(C[C@@H]2CN(Cc3cnc(NC(C)=O)s3)CCO2)ccn1 [Example 1-3, (R)—N-(5-((2-((2-methoxypyridin-4-yl)methyl)morpholino)methyl)thiazol-2-yl)acetamide] | 43 |
| COc1nccc(C[C@@H]2CN(Cc3cnc(NC(C)=O)s3)CCO2)c1F [Example 1-15, (R)—N-(5-((2-((3-fluoro-2-methoxypyridin-4-yl)methyl)morpholino)methyl)thiazol-2-yl)acetamide] | 56 |
| CC(=O)Nc1ncc(CN2CCO[C@H](Cc3ccnc(OC(F)F)c3)C2)s1 [Example 1-17, (R)—N-(5-((2-((2-(difluoromethoxy)pyridin-4-yl)methyl)morpholino)methyl)thiazol-2-yl)acetamide] | 136 |
| CC(=O)Nc1ncc(CN2CCOC(C(C)c3ncc(F)cn3)C2)s1 (single isomer, unassigned) [Example 1-25 Peak 4] | 1300 |

| Structure (SMILES) | IC50 [nM] |
| --- | --- |
| CC(=O)Nc1ncc(CN2CCO[C@H](Cc3ccnc(C)n3)C2)s1 [Example 1-14, (R)—N-(5-((2-((2-methylpyrimidin-4-yl)methyl)morpholino)methyl)thiazol-2-yl)acetamide] | 180 |
| CC(=O)Nc1ncc(CN2CCCOC(Cc3ncc(F)cn3)C2)s1 (single isomer, unassigned) [Example 1-39 Peak 2] | 760 |
| COc1nccc(CC2CN(Cc3cnc(NC(C)=O)s3)CCN2)c1F (single isomer, unassigned) [Example 4-18 Peak 1] | 14000 |
| CC(=O)Nc1ncc(CN2C[C@H](Cc3ncc(F)cn3)OC[C@@H]2C)s1 [Example 1-28, N-(5-(((2S,5S)-2-((5-fluoropyrimidin-2-yl)methyl)-5-methylmorpholino)methyl)thiazol-2-yl)acetamide] | 150 |
| CC(=O)Nc1ncc(C(C)N2CCO[C@H](Cc3ncc(F)cn3)C2)s1 (single isomer, unassigned) [Example 1-23 Peak 1] | 19 |
| CC(=O)Nc1ncc(CN2CCCOC(Cc3ncc(F)cn3)C2)s1 (racemic) [Example 1-38, N-(5-((2-((5-fluoropyrimidin-2-yl)methyl)-1,4-oxazepan-4-yl)methyl)thiazol-2-yl)acetamide] | 45 |
| CC(=O)Nc1ncc(CN2C[C@@H](Cc3cc(C)nc(C)c3)NC[C@@H]2C)s1 [Example 2-8, N-(5-(((2S,5R)-5-((2,6-dimethylpyridin-4-yl)methyl)-2-methylpiperazin-1-yl)methyl)thiazol-2-yl)acetamide] | 9.1 |
| CC(=O)Nc1ncc(CN2CCN(C)[C@H](Cc3cc(C)nc(C)c3)C2)s1 [Example 4-3, (R)—N-(5-((3-((2,6-dimethylpyridin-4-yl)methyl)-4-methylpiperazin-1-yl)methyl)thiazol-2-yl)acetamide] | 1600 |
| CC(=O)Nc1ncc(CN2CCOC(C(C)c3ncc(F)cn3)C2)s1 (single isomer, unassigned) [Example 1-25 Peak 3] | 160 |
| COc1cc(CC2COCCN(Cc3cnc(NC(C)=O)s3)C2)ccn1 (single isomer, unassigned) [Example 1-47 Peak 1] | 1000 |
| CC(=O)Nc1ncc(CN2CCO[C@H](Cc3ccnc(C(F)F)c3)C2)s1 [Example 1-13] | 260 |
| CC(=O)Nc1ncc(C(C)N2CCO[C@H](Cc3ncc(F)cn3)C2)s1 (single isomer, unassigned) [Example 1-23 Peak 2] | 360 |
| COc1cc(C[C@@H]2CN(Cc3cnc(NC(C)=O)s3)[C@@H](C)CN2)ccn1 [Example 2-14, N-(5-(((2S,5R)-5-((2-methoxypyridin-4-yl)methyl)-2-methylpiperazin-1-yl)methyl)thiazol-2-yl)acetamide] | 7.5 |
| CC(=O)Nc1ncc(CN2CCCOC(Cc3cc(C)nc(C)c3)C2)s1 (single isomer, unassigned) [Example 1-37 Peak 1] | 31 |
| CC(=O)Nc1ncc(CN2CCO[C@H](Cc3ccnc(C)c3)C2)s1 [Example 1-20, (R)—N-(5-((2-((2-methylpyridin-4-yl)methyl)morpholino)methyl)thiazol-2-yl)acetamide] | 84 |
| CC(=O)Nc1ncc(CN2CCCNC(Cc3cc(C)nc(C)c3)C2)s1 (stereo not shown) [Example 2-28, N-(5-((3-((2,6-dimethylpyridin-4-yl)methyl)-1,4-diazepan-1-yl)methyl)thiazol-2-yl)acetamide] | 12000 |
| CC(=O)Nc1ncc(CN2C[C@@H](COc3cc(C)nc(C)c3)OC[C@@H]2C)s1 [Example 3-4, N-(5-(((2S,5S)-2-(((2,6-dimethylpyridin-4-yl)oxy)methyl)-5 methylmorpholino)methyl)thiazol-2-yl)acetamide] | 17 |
